# Laboratory results published in paper PMC10584170, “Machine learning-based phenotypic imaging to characterise the targetable biology of Plasmodium falciparum male gametocytes for the development of transmission-blocking antimalarials” (PLOS Pathogens, 2023).
# Like-named read-outs stand apart in the source and are kept apart here.
# What was measured:
# [1] = tested on: P. falciparum female gametocytes; assay: P. falciparum Dual Gamete Formation Assay (PfDGFA), female readout (Pfs25-positive female gametes); format: cell-based, Plasmodium falciparum NF54; settings: for Selectivity ratio F: HepG2 Tox50 versus female IC50; for IC50: PfDGFA, 24 h incubation with gametocytes before induction, female gamete readout, read-out: Female IC50; for HitlevelF: number of replicates with >50% inhibition in the female readout
# Procedure, shortened: (§1)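 Two sex-specific readouts come from one well: male exflagellation centres recorded by brightfield video right after activation, and female gametes scored by Cy3-anti-Pfs25 fluorescence after 24 h at 28°C.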
# [2] = tested on: P. falciparum male gametocytes; assay: P. falciparum Dual Gamete Formation Assay (PfDGFA), male readout (exflagellation); format: cell-based, Plasmodium falciparum NF54; settings: for Selectivity Ratio M: HepG2 Tox50 versus male IC50; for IC50: PfDGFA, 24 h incubation with gametocytes before induction, exflagellation readout, read-out: Male IC50; for HitlevelM: number of replicates with >50% inhibition in the male readout
# Procedure, shortened: as §1
# HepG2 cells = assay: HepG2 cytotoxicity counter-screen; settings: cytotoxic activity against HepG2 cells
# [3] = Plasmodium falciparum, PfDGFA at 2µM, 24h preincubation with gametocytes, average of replicates, read-out: Average inhibition female (%)
# [4] = Plasmodium falciparum, PfDGFA at 2µM, 24h preincubation with gametocytes, replicate R1, read-out: % inhibition female (individual replicates) R1
# [5] = Plasmodium falciparum, PfDGFA at 2µM, 24h preincubation with gametocytes, replicate R2, read-out: % inhibition female (individual replicates) R2
# [6] = Plasmodium falciparum, PfDGFA at 2µM, 24h preincubation with gametocytes, replicate R3, read-out: % inhibition female (individual replicates) R3
# [7] = Plasmodium falciparum, PfDGFA at 2µM, 24h preincubation with gametocytes, replicate R4, read-out: % inhibition female (individual replicates) R4
# [8] = Plasmodium falciparum, PfDGFA at 2µM, 24h preincubation with gametocytes, average of replicates, read-out: Average inhibition male (%)
# [9] = Plasmodium falciparum, PfDGFA at 2µM, 24h preincubation with gametocytes, replicate R1, read-out: % inhibition male (individual replicates) R1
# [10] = Plasmodium falciparum, PfDGFA at 2µM, 24h preincubation with gametocytes, replicate R2, read-out: % inhibition male (individual replicates) R2
# [11] = Plasmodium falciparum, PfDGFA at 2µM, 24h preincubation with gametocytes, replicate R3, read-out: % inhibition male (individual replicates) R3
# [12] = Plasmodium falciparum, PfDGFA at 2µM, 24h preincubation with gametocytes, replicate R4, read-out: % inhibition male (individual replicates) R4
# [13] = PfDGFA at 2µM, 24h preincubation with gametocytes, average of replicates
# [14] = PfDGFA at 2µM, 24h preincubation with gametocytes, replicate R1
# [15] = PfDGFA at 2µM, 24h preincubation with gametocytes, replicate R3
# [16] = PfDGFA at 2µM, 24h preincubation with gametocytes, replicate R4
# [17] = 2µM, 24h preincubation with gametocytes, average of replicates
# [18] = 2µM, 24h preincubation with gametocytes, replicate R1
# [19] = 2µM, 24h preincubation with gametocytes, replicate R3
# [20] = 2µM, 24h preincubation with gametocytes, replicate R4
Structure (SMILES),Selectivity ratio F [1],"inhibition at 2 µM [1, 3]","inhibition at 2 µM [1, 4]","inhibition at 2 µM [1, 5]","inhibition at 2 µM [1, 6]","inhibition at 2 µM [1, 7]",IC50 ([1]; Plasmodium falciparum),HitlevelF ([1]; 2µM),Selectivity Ratio M [2],"inhibition at 2 µM [2, 8]","inhibition at 2 µM [2, 9]","inhibition at 2 µM [2, 10]","inhibition at 2 µM [2, 11]","inhibition at 2 µM [2, 12]",IC50 ([2]; Plasmodium falciparum),HitlevelM ([2]; 2µM),Tox50 (HepG2 cells),further results
O=C(c1ccc(-c2cnc3[nH]cc(-c4ccc(C(=O)N5CCOCC5)cc4)c3c2)cc1)N1CCOCC1 [TCMDC-132781],2.9,9.1%,7.2%,16.3%,1.6%,11.4%,> 10000 nM,0,66.32,77%,90.7%,89.1%,77.8%,50.2%,440 nM,4,28.99 µM,–
CNCCNCc1ccc(-c2ccc(-c3nc4cccc(C)c4[nH]3)cc2)cc1.O=C(O)C(F)(F)F [TCMDC-132837],1.52,–,–,–,–,–,–,0,7.9,–,–,–,–,–,–,4,13.18 µM,"Average inhibition female (%) [1, 13]: 30.6%; % inhibition female (individual replicates) R1 [1, 14]: 20.0%; % inhibition female (individual replicates) R3 [1, 15]: 47.7%; % inhibition female (individual replicates) R4 [1, 16]: 20.5%; IC50 [1]: 8690 nM; Average inhibition male (%) [2, 13]: 81.2%; % inhibition male (individual replicates) R1 [2, 14]: 79.2%; % inhibition male (individual replicates) R3 [2, 15]: 67.7%; % inhibition male (individual replicates) R4 [2, 16]: 94.2%; IC50 [2]: 1670 nM"
CNCCNCc1ccc(-c2ccc(-c3nc4cc(C(F)(F)F)ccc4[nH]3)s2)cc1.O=C(O)C(F)(F)F [TCMDC-132838],1.31,–,–,–,–,–,–,–,9.9,–,–,–,–,–,–,–,13.1 µM,"Average inhibition female (%) [1, 17]: 23.9%; % inhibition female (individual replicates) R1 [1, 18]: 24.8%; % inhibition female (individual replicates) R3 [1, 19]: 17.6%; % inhibition female (individual replicates) R4 [1, 20]: 33.8%; Average inhibition male (%) [2, 17]: 96.4%; % inhibition male (individual replicates) R1 [2, 18]: 96.0%; % inhibition male (individual replicates) R3 [2, 19]: 93.3%; % inhibition male (individual replicates) R4 [2, 20]: 98.9%; IC50 [2]: 1320 nM"
FC(F)(F)c1ccc2[nH]c(-c3ccc(-c4cccc(CNCCN5CCNCC5)c4)cc3)nc2c1.O=C(O)C(F)(F)F [TCMDC-132864],3.99,20.5%,25.8%,24.6%,-15.8%,47.4%,5150 nM,0,12.52,82.4%,79.2%,89.7%,65.9%,94.9%,1640 nM,4,20.55 µM,–
FC(F)(F)c1ccc2[nH]c(-c3ccc(-c4ccc(CNCCN5CCNCC5)cc4)cc3)nc2c1.O=C(O)C(F)(F)F [TCMDC-132865],2.26,29.2%,27.7%,31%,31%,27.1%,6080 nM,0,9.44,69.5%,60.9%,79.2%,39.1%,98.9%,1460 nM,3,13.76 µM,–
Fc1ccc2[nH]c(-c3ccc(-c4ccc(CNCCN5CCNCC5)cc4)cc3)nc2c1.O=C(O)C(F)(F)F [TCMDC-132866],2.88,11.4%,18%,1.6%,12.7%,13.5%,> 10000 nM,0,12.07,63.5%,59%,70.4%,32.6%,92.2%,2390 nM,3,28.84 µM,–
Cc1cccc2nc(-c3ccc(-c4cccc(CNCCN5CCNCC5)c4)cc3)[nH]c12.O=C(O)C(F)(F)F [TCMDC-132867],2.66,–,–,–,–,–,9110 nM,–,12.97,–,–,–,–,–,1870 nM,–,24.28 µM,"HitlevelF ([1]; 2µM, 24h preincubation): 1; inhibition at 2 µM ([1]; Plasmodium falciparum, 2µM, 24h preincubation with gametocytes prior to induction of gametogenesis, average of replicates, read-out: Average inhibition female (%)): 20.3%; inhibition at 2 µM ([1]; Plasmodium falciparum, 2µM, 24h preincubation with gametocytes prior to induction of gametogenesis, replicate R1, read-out: % inhibition female (individual replicates) R1): 12%; inhibition at 2 µM ([1]; Plasmodium falciparum, 2µM, 24h preincubation with gametocytes prior to induction of gametogenesis, replicate R2, read-out: % inhibition female (individual replicates) R2): 8.9%; inhibition at 2 µM ([1]; Plasmodium falciparum, 2µM, 24h preincubation with gametocytes prior to induction of gametogenesis, replicate R3, read-out: % inhibition female (individual replicates) R3): 0.36%; inhibition at 2 µM ([1]; Plasmodium falciparum, 2µM, 24h preincubation with gametocytes prior to induction of gametogenesis, replicate R4, read-out: % inhibition female (individual replicates) R4): 60%; HitlevelM ([2]; 2µM, 24h preincubation): 3; inhibition at 2 µM ([2]; Plasmodium falciparum, 2µM, 24h preincubation with gametocytes prior to induction of gametogenesis, average of replicates, read-out: Average inhibition male (%)): 46.3%; inhibition at 2 µM ([2]; Plasmodium falciparum, 2µM, 24h preincubation with gametocytes prior to induction of gametogenesis, replicate R1, read-out: % inhibition male (individual replicates) R1): 51.3%; inhibition at 2 µM ([2]; Plasmodium falciparum, 2µM, 24h preincubation with gametocytes prior to induction of gametogenesis, replicate R2, read-out: % inhibition male (individual replicates) R2): 52.2%; inhibition at 2 µM ([2]; Plasmodium falciparum, 2µM, 24h preincubation with gametocytes prior to induction of gametogenesis, replicate R3, read-out: % inhibition male (individual replicates) R3): 9.9%; inhibition at 2 µM ([2]; Plasmodium falciparum, 2µM, 24h preincubation with gametocytes prior to induction of gametogenesis, replicate R4, read-out: % inhibition male (individual replicates) R4): 71.6%"
Fc1ccc2[nH]c(-c3ccc(-c4ccc(CNCCN5CCNCC5)cc4)s3)nc2c1.O=C(O)C(F)(F)F [TCMDC-132869],3.35,6.1%,10.8%,10.6%,-3.4%,6.4%,7180 nM,0,12.22,66.3%,55.2%,84.7%,32.6%,92.9%,1970 nM,3,24.05 µM,–
